Results: patent publication US10676437B2, “Fluorinated 4-(substituted amino)phenyl carbamate derivatives” (SciFluor Life Sciences, Inc., priority 2017, dated 2020)

Experiments:
Assay type in all cases: cell-based
[1] = target: KCNQ3/5 (Homo sapiens, UniProt O43525+Q9NR82); experiment: Automated patch clamp, activation of KCNQ3/5 channels; conditions: for Selectivity KCNQ3/5 EC50 / KCNQ2/3 EC50: ratio of EC50 values
Experimental: (§1) Electrophysiological studies of the compounds were performed using the Nanion SyncroPatch automated patch clamp platform.
(§2) Kv7 channels were evaluated using a voltage protocol in which cells were voltage-clamped at a holding potential of −110 mV. Potassium currents were activated with a series of voltage steps from −110 mV to +50 mV in 10 mV intervals with 5.5 seconds between successive voltage steps. Each voltage step was 3 seconds in duration and immediately followed by a 1 second voltage step to −120 mV to generate an inward “tail” current to allow construction of activation (G-V) curves by plotting normalized peak tail current versus the potential of the activating voltage step. To obtain normalized values, peak current amplitudes for successive depolarizing pulses were normalized against the maximum tail current amplitude generated at +50 mV (Tatulian et al., Journal of Neuroscience 2001, 21 (15)).
(§3) Data was collected on the Syncropatch platform using PatchControl software (Nanion) and processed and analyzed using DataControl Software (Nanion). Normalized percent activation was calculated and activation curves were fit with a Boltzmann function to determine the midpoint voltage of activation (G-V midpoint) for both pre-compound and post-compound conditions for each of the 384-wells of a sealchip with Pipeline Pilot (Accelrys). The difference in G-V midpoint between pre-compound and post-compound conditions (Δ V0.5) was plotted as a function of concentration and concentration-response curves were fit with a three-parameter logistic equation {Y=Bottom+(Top−Bottom)/(1+10^(Log EC50−X))} for determination of the EC50 (Graphpad Prism).

[2] = target: KCNQ4 (Homo sapiens, UniProt P56696); experiment: Automated patch clamp, activation of KCNQ4 channels; conditions: for Selectivity KCNQ4 EC50 / KCNQ2/3 EC50: ratio of EC50 values
Experimental: as §1, §2, §3

[3] = target: T1, human Kv7.2/7.3 channels (Homo sapiens, UniProt O43525+O43526); experiment: Syncropatch automated patch clamp, activation of recombinantly expressed human Kv7.2/7.3 (KCNQ2/3) channels in CHO cells; conditions: shift in G-V midpoint (Δ V0.5) vs concentration
T1 construct: expressed in transfected cells
Experimental: The in vitro effects of a compound of the present application recombinantly expressed human Kv7.2/7.3 channels are assessed on Syncropatch high throughput electrophysiology platform.
CHO cells stably expressing human Kv7.2/7.3 channels were cultured in Ham's F-12 media (Hyclone, Cat # SH30022.02) supplemented with 10% Fetal Bovine Serum, 1×MEM non-essential amino acids, and 400 μg/ml G418 at 37° C. in 5% CO2. On the day of Syncropatch, the cells were washed once in DPBS (Hyclone, Cat # SH30028.03) for approximately 30 seconds. 1 ml of 1×0.015% Trypsin-EDTA GIBCO Cat #25300-054) was added and swirled around to cover the bottom of the flask, and allowed to sit on the cells for about 4 minutes (approximately 90% of the cells were lifted by light tapping of the flask). 10 ml of cold media (Ham's F-12 media (Hyclone, Cat # SH30022.02) supplemented with 10% Fetal Bovine Serum, 1×MEM non-essential amino acids, and 400 μg/ml G418) was added to inactivate Trypsin. The cells were then triturated until a single cell suspension was achieved, and the cell count was performed. The cells were then diluted to a concentration of 5×10^5/ml and placed into the “cell hotel” on the deck of the Syncropatch at 10° C. for about 1 hour to recover. 40 μL of the cell suspension was dispensed into each well of a 384-well Syncropatch chip by the onboard pipettor at the beginning of each Syncropatch assay.
The compounds to be tested were dissolved in DMSO to give 10 mM stock solutions. […]
Kv7 channels were evaluated using a voltage protocol in which cells were voltage-clamped at a holding potential of −110 mV. […]
Data was collected on the Syncropatch platform using PatchControl software (Nanion) and processed and analyzed using DataControl Software (Nanion). Normalized percent activation was calculated and activation curves were fit with a Boltzmann function to determine the midpoint voltage of activation (G-V midpoint) for both pre-compound and post-compound conditions for each of the 384-wells of a sealchip with Pipeline Pilot (Accelrys). […]

Structure (SMILES)	EC50 [1]	Selectivity KCNQ3/5 EC50 / KCNQ2/3 EC50 [1]	EC50 [2]	Selectivity KCNQ4 EC50 / KCNQ2/3 EC50 [2]	EC50 [3]
Cc1c(F)c(N2CCc3cc(F)ccc3C2)c(F)c(C)c1NC(=O)CC(C)(C)C [Compound 1, N-(3,5-difluoro-4-(6-fluoro-3,4-dihydroisoquinolin-2 (1H)-yl)-2,6-dimethylphenyl)-3,3-dimethylbutanamide]	1000 to 10000 nM	III (III: 5 to <10)	≥ 10000 nM	VI (VI: ≥100)	100 to 1000 nM
Cc1c(F)c(NCc2ccc(F)cc2)c(F)c(C)c1NC(=O)CC(C)(C)C [Compound 2, N-(3,5-difluoro-4-((4-fluorobenzyl)amino)-2,6-dimethylphenyl)-3,3-dimethylbutanamide]	100 to 1000 nM	IV (IV: 10 to <50)	1000 to 10000 nM	V (V: 50 to <100)	< 100 nM
C#CCN(Cc1ccc(F)cc1)c1ccc(NC(=O)OCC)c(N)c1 [Control, reference compound]	< 100 nM	I (I: <1)	100 to 1000 nM	IV (IV: 10 to <50)	< 100 nM
